Reference: paper PMC10913484, “Hydroxyhexylitaconic acids as potent IMP-type metallo-β-lactamase inhibitors for controlling carbapenem resistance in Enterobacterales” (Microbiology Spectrum, 2024)
Where two headings read alike, the source gives them in different places.

Key:
Assay type in all cases: cell-based
[1] = tested on: E. coli 465 (IMP-1); test: Susceptibility test, clinical isolate; conditions: Escherichia coli
Method: (§1) Susceptibility testing, based on the microdilution method, was performed according to the guidelines of the Clinical and Laboratory Standards Institute ([36]).

[2] = tested on: E. coli NUBL-24 (IMP-1); test: Susceptibility test, clinical isolate; conditions: Escherichia coli
Method: as §1

[3] = tested on: P. penneri E11-M475 (IMP-1); test: Susceptibility test, clinical isolate; conditions: Proteus penneri
Method: as §1

[4] = tested on: K. pneumoniae AR0076 (VIM-1); test: Susceptibility test, clinical isolate; conditions: Klebsiella pneumoniae
Method: as §1

[5] = tested on: K. pneumoniae NUBL-8 (IMP-1); test: Susceptibility test, clinical isolate; conditions: Klebsiella pneumoniae
Method: as §1

[6] = tested on: E. coli 426 (IMP-1); test: Susceptibility test, clinical isolate; conditions: Escherichia coli
Method: as §1

[7] = tested on: K. pneumoniae MS5674 (NDM-1/VIM-1); test: Susceptibility test, clinical isolate; conditions: Klebsiella pneumoniae
Method: as §1

[8] = tested on: K. pneumoniae AR0034 (IMP-4); test: Susceptibility test, clinical isolate; conditions: Klebsiella pneumoniae
Method: as §1

[9] = tested on: K. pneumoniae NUBL-23 (IMP-6); test: Susceptibility test, clinical isolate; conditions: Klebsiella pneumoniae
Method: as §1

[10] = tested on: E. cloacae NUBL-5 (IMP-1); test: Susceptibility test, clinical isolate; conditions: Enterobacter cloacae
Method: as §1

[11] = tested on: E. coli NUBL-22 (IMP-6); test: Susceptibility test, clinical isolate; conditions: Escherichia coli
Method: as §1

[12] = tested on: K. oxytoca NUBL-827 (IMP-1); test: Susceptibility test, clinical isolate; conditions: Klebsiella oxytoca
Method: as §1

[13] = tested on: IMP-1-producing E. coli NUBL-24; test: Time-killing assay; conditions: 12-h incubation
Method: The initial density of IMP-1-producing E. coli NUBL-24 (MPM MIC, 8 µg/mL) was adjusted to approximately 5 × 10^6 colony-forming units (cfu)/mL. Either MPM (1 µg/mL) or 9-HHIA/10-HHIA (50 µg/mL) alone or a combination of the two was added to the bacterial solution, and then incubation was performed at 37°C. LB broth containing bacteria alone was used as a control. At 0, 2, 4, 8, and 12 h after adding the agents, an aliquot of the bacterial culture was removed, diluted, and spotted on LB agar plates to count the viable bacterial cells. The detection limit was set at 333 cfu/mL.

[14] = tested on: E. coli DH5α pBC-IMP-1; test: Susceptibility test (microdilution), transformant; conditions: Escherichia coli
Method: as §1

[15] = tested on: E. coli DH5α pBC-NDM-1; test: Susceptibility test (microdilution), transformant; conditions: for MPM MIC: E. coli DH5α pBC-NDM-1
Method: as §1

[16] = tested on: E. coli DH5α pCL-SMB-1; test: Susceptibility test (microdilution), transformant; conditions: for MPM MIC: E. coli DH5α pCL-SMB-1
Method: as §1

[17] = +HHIA 6.25 µg/mL, read-out: IPM MIC
[18] = +HHIA 6.25 μg/mL, read-out: MPM MIC
[19] = +HHIA 25 µg/mL, read-out: IPM MIC
[20] = +HHIA 25 μg/mL, read-out: MPM MIC
[21] = +HHIA 100 µg/mL, read-out: IPM MIC
[22] = +HHIA 100 μg/mL, read-out: MPM MIC
[23] = Escherichia coli, read-out: MPM MIC

C=C(C(=O)O)C(CCCCCCO)C(=O)O (stereo not shown) [10-HHIA, 10-hydroxyhexylitaconic acid]
0.125 µg/mL: MIC ([2]; read-out: MPM MIC) | MIC ([8]; read-out: MPM MIC) | MIC ([14]; read-out: MPM MIC, +agent 25 μg/mL)
16 µg/mL: MIC [1, 17] | MIC [1, 18] | MIC [3, 22] | MIC [4, 21] | MIC [10, 18] | MIC [10, 20] | MIC [11, 18] | MIC [12, 18]
0.5 µg/mL: MIC ([2]; +HHIA 25 μg/mL, E. coli NUBL-24 (IMP-1), read-out: MPM MIC) | MIC [5, 21] | MIC ([8]; +HHIA 25 μg/mL, K. pneumoniae AR0034 (IMP-4), read-out: MPM MIC) | MIC ([8]; +HHIA 100 µg/mL, K. pneumoniae AR0034 (IMP-4), read-out: IPM MIC) | MIC [9, 17] | MIC [9, 21] | MIC [11, 19] | MIC [11, 21]
4 µg/mL: MIC [1, 19] | MIC [1, 20] | MIC ([2]; +HHIA 6.25 µg/mL, E. coli NUBL-24 (IMP-1), read-out: IPM MIC) | MIC ([2]; +HHIA 6.25 μg/mL, E. coli NUBL-24 (IMP-1), read-out: MPM MIC) | MIC [6, 19] | MIC ([8]; +HHIA 6.25 μg/mL, K. pneumoniae AR0034 (IMP-4), read-out: MPM MIC) | MIC [10, 19] | MIC [12, 19]
≤ 0.0625 µg/mL: MIC ([14]; read-out: MPM MIC, +agent 100 μg/mL)
8 µg/mL: MIC [5, 18] | MIC [6, 17] | MIC [6, 18] | MIC [10, 17] | MIC [10, 22] | MIC [11, 20] | MIC [12, 17] | MIC [12, 20]
32 µg/mL: MIC [4, 17] | MIC [4, 18] | MIC [4, 19] | MIC [4, 20] | MIC [4, 22] | MIC [7, 17] | MIC [7, 21] | MIC [9, 18] | MPM MIC ([16]; +agent 25 μg/mL) | MPM MIC ([16]; +agent 100 μg/mL) | MIC [16, 23]
> 64 µg/mL: MIC [3, 17] | MIC [3, 18] | MIC [3, 19] | MIC [3, 20] | MIC [7, 18] | MIC [7, 20]
2 µg/mL: MIC [5, 17] | MIC [5, 20] | MIC [6, 21] | MIC ([8]; +HHIA 6.25 µg/mL, K. pneumoniae AR0034 (IMP-4), read-out: IPM MIC) | MIC [9, 20] | MIC [12, 21]
1 µg/mL: MIC [1, 21] | MIC ([2]; +HHIA 25 µg/mL, E. coli NUBL-24 (IMP-1), read-out: IPM MIC) | MIC ([2]; +HHIA 100 µg/mL, E. coli NUBL-24 (IMP-1), read-out: IPM MIC) | MIC [5, 19] | MIC [6, 20] | MIC ([8]; +HHIA 25 µg/mL, K. pneumoniae AR0034 (IMP-4), read-out: IPM MIC) | MIC [10, 21] | MIC [11, 17] | MIC [11, 22] | MIC [12, 22]
did not permit the re-growth: Time-kill: MPM-HHIA combination ([13]; MPM 1 µg/mL + HHIA 50 µg/mL)
0.25 µg/mL: MIC [1, 22] | MIC [5, 22] | MIC [6, 22] | MIC [9, 19] | MIC [9, 22]
did not affect the growth: Time-kill: effect on growth, HHIA alone ([13]; 50 µg/mL alone)
64 µg/mL: MIC [3, 21] | MIC [7, 19] | MIC [7, 22] | MPM MIC ([15]; +agent 25 μg/mL) | MPM MIC ([15]; +agent 100 μg/mL) | MIC [15, 23]
